Experimental findings from patent US20110263629A1, “AMIDES OF DIAZABICYCLOOCTANES AND USES THEREOF” (Targacept, Inc., priority 2008, published 2011) are described below.

One experiment deals with T1, rat α7 nAChR subtype (Rattus norvegicus, UniProt Q05941).
T1 construct: Preparation of membranes from rat hippocampus; from tissue; host or cells: rat hippocampus membranes
Description: Radioligand binding ([3H]MLA) at α7 nAChR, rat hippocampus membranes. Here is the method: Preparation of membranes from rat hippocampus: Rats (female, Sprague-Dawley), weighing 150-250 g, were maintained on a 12 h light/dark cycle and were allowed free access to water and food supplied by PMI Nutrition International, Inc. Animals were anesthetized with 70% CO2, then decapitated. Brains were removed and placed on an ice-cold platform. The hippocampus was removed and placed in 10 volumes (weight:volume) of ice-cold preparative buffer (137 mM NaCl, 10.7 mM KCl, 5.8 mM KH2PO4, 8 mM Na2HPO4, 20 mM HEPES (free acid), 5 mM iodoacetamide, 1.6 mM EDTA, pH 7.4); PMSF, dissolved in methanol to a final concentration of 100 μM, was added and the tissue suspension was homogenized by Polytron. The homogenate was centrifuged at 18,000×g for 20 min at 4° C. and the resulting pellet was re-suspended in 10 volumes of ice-cold water. After 60 min incubation on ice, a new pellet was collected by centrifugation at 18,000×g for 20 min at 4° C. The final pellet was re-suspended in 10 volumes of buffer and stored at −20° C.
On the day of the assay, tissue was thawed, centrifuged at 18,000×g for 20 min, and then re-suspended in ice-cold PBS (Dulbecco's Phosphate Buffered Saline, 138 mM NaCl, 2.67 mM KCl, 1.47 mM KH2PO4, 8.1 mM Na2HPO4, 0.9 mM CaCl2, 0.5 mM MgCl2, Invitrogen/Gibco, pH 7.4) to a final concentration of approximately 2 mg protein/mL. Protein was determined by the method of Lowry et al., J. Biol. Chem. 193: 265 (1951), herein incorporated by reference, using bovine serum albumin as the standard.
Assay: The binding of [^3H]MLA was measured using a modification of the methods of Davies et al., Neuropharmacol. 38: 679 (1999), herein incorporated by reference. [^3H]MLA (Specific Activity=25-35 Ci/mmol) was obtained from Tocris. The binding of [^3H]MLA was determined using a 2 h incubation at 21° C. Incubations were conducted in 48-well micro-titre plates and contained about 200 μg of protein per well in a final incubation volume of 300 μL. The incubation buffer was PBS and the final concentration of [^3H]MLA was 5 nM. The binding reaction was terminated by filtration of the protein containing bound ligand onto glass fiber filters (GF/B, Brandel) using a Brandel Tissue Harvester at room temperature. Filters were soaked in de-ionized water containing 0.33% polyethyleneimine to reduce non-specific binding. Each filter was washed with PBS (3×1 mL) at room temperature. Non-specific binding was determined by inclusion of 50 μM non-radioactive MLA in selected wells.
The inhibition of [^3H]MLA binding by test compounds was determined by including seven different concentrations of the test compound in selected wells. Each concentration was replicated in triplicate. IC50 values were estimated as the concentration of compound that inhibited 50 percent of specific [^3H]MLA binding. Inhibition constants (Ki values), reported in nM, were calculated from the IC50 values using the method of Cheng et al., Biochem. Pharmacol. 22: 3099-3108 (1973), herein incorporated by reference.

For the next experiment, the target named is T2, human α4β2 nAChR subtype (Homo sapiens, UniProt P17787+P43681).
T2 construct: expressed in transfected cells; host or cells: SH-EP1 clonal cells expressing human α4β2
T2 sequence (P43681 29-627 limits assumed): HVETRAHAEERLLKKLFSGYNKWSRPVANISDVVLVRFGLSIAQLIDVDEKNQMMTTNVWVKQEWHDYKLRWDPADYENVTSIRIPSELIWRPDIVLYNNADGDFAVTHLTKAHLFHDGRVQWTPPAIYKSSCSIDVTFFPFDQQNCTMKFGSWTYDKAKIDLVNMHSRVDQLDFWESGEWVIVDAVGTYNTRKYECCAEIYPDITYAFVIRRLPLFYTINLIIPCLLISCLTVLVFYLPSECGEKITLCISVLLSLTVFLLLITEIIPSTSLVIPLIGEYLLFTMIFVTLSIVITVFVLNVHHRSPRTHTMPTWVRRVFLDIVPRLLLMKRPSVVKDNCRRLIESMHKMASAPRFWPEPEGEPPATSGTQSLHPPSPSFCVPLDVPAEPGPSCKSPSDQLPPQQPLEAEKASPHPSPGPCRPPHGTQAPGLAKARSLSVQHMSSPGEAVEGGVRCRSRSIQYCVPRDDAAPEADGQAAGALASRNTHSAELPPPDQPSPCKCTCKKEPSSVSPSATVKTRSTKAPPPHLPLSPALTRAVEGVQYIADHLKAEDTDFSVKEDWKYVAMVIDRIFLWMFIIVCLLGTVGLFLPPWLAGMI
T2 sequence (P17787 26-502): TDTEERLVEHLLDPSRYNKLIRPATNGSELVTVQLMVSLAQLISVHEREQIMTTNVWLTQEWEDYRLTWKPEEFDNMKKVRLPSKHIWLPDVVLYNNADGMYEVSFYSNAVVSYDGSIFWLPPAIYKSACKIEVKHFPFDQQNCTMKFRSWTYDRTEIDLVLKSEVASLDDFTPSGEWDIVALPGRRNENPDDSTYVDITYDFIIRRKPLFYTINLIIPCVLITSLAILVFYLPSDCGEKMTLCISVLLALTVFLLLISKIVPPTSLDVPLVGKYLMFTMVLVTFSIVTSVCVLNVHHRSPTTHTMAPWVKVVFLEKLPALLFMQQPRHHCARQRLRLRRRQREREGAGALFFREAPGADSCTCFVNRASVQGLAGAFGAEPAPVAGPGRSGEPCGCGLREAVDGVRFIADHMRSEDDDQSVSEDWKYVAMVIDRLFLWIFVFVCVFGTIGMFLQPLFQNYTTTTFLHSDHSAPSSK
Description: Radioligand binding ([3H]nicotine) at human α4β2 nAChR, SH-EP1/human α4β2 clonal cell membranes. To be noted: read-out: Human α4β2 Ki. On the procedure: Preparation of membranes from SH-EP1/human α4β2 clonal cells: Cell pellets from 40 150 mm culture dishes were pooled, and homogenized by Polytron (Kinematica GmbH, Switzerland) in 20 milliliters of ice-cold preparative buffer. The homogenate was centrifuged at 48,000 g for 20 minutes at 4° C. The resulting pellet was re-suspended in 20 mL of ice-cold preparative buffer and stored at −20° C.
(§1) On the day of the assay, the frozen membranes were thawed and spun at 48,000×g for 20 min. The supernatant was decanted and discarded. The pellet was resuspended in Dulbecco's phosphate buffered saline (PBS, Life Technologies) pH 7.4 and homogenized with the Polytron for 6 seconds. Protein concentrations were determined using a Pierce BCA Protein Assay Kit, with bovine serum albumin as the standard (Pierce Chemical Company, Rockford, Ill.).
(§2) Incubation was terminated by rapid filtration on a multi-manifold tissue harvester (Brandel, Gaithersburg, Md.) using GF/B filters presoaked in 0.33% polyethyleneimine (w/v) to reduce non-specific binding. Tissue was rinsed 3 times in PBS, pH 7.4. Scintillation fluid was added to filters containing the washed tissue and allowed to equilibrate. Filters were then counted to determine radioactivity bound to the membranes by liquid scintillation counting (2200CA Tri-Carb LSC, Packard Instruments, 50% efficiency or Wallac Trilux 1450 MicroBeta, 40% efficiency, Perkin Elmer).
(§3) Data were expressed as disintegrations per minute (DPMs). Within each assay, each point had 2-3 replicates. The replicates for each point were averaged and plotted against the log of the drug concentration. IC50, which is the concentration of the compound that produces 50% inhibition of binding, was determined by least squares non-linear regression. Ki values were calculated using the Cheng-Prussof equation (1973): […]

A further experiment has as its target T3, rat α4β2 nAChR subtype (Rattus norvegicus, UniProt P09483+P12390).
T3 construct: Preparation of membranes from rat cortex; from tissue; host or cells: rat cerebral cortex membranes
Description: Radioligand binding ([3H]nicotine) at rat α4β2 nAChR, rat cortex membranes. To be noted: read-out: Rat α4β2 Ki. Here is the method: Preparation of membranes from rat cortex: Rats (female, Sprague-Dawley), weighing 150-250 g, were maintained on a 12 h light/dark cycle and were allowed free access to water and food supplied by PMI Nutrition International, Inc. Animals were anesthetized with 70% CO2, and then decapitated. Brains were removed and placed on an ice-cold platform. The cerebral cortex was removed and placed in 20 volumes (weight:volume) of ice-cold preparative buffer (137 mM NaCl, 10.7 mM KCl, 5.8 mM KH2PO4, 8 mM Na2HPO4, 20 mM HEPES (free acid), 5 mM iodoacetamide, 1.6 mM EDTA, pH 7.4); PMSF, dissolved in methanol to a final concentration of 100 μM, was added and the suspension was homogenized by Polytron. The homogenate was centrifuged at 18,000×g for 20 min at 4° C. and the resulting pellet was re-suspended in 20 volumes of ice-cold water. After 60 min incubation on ice, a new pellet was collected by centrifugation at 18,000×g for 20 min at 4° C. The final pellet was re-suspended in 10 volumes of buffer and stored at −20° C.
as §1, §2, §3

[1] abbreviates: rat hippocampus membranes, 5 nM [3H]MLA, read-out: Rat α7 Ki.
[2] abbreviates: rat cortex membranes, 5 nM [3H]nicotine.

pKi: −log10 of the molar value. Read-outs that look alike come from different tables or passages of the source.

T1 sequence (Q05941 23-502): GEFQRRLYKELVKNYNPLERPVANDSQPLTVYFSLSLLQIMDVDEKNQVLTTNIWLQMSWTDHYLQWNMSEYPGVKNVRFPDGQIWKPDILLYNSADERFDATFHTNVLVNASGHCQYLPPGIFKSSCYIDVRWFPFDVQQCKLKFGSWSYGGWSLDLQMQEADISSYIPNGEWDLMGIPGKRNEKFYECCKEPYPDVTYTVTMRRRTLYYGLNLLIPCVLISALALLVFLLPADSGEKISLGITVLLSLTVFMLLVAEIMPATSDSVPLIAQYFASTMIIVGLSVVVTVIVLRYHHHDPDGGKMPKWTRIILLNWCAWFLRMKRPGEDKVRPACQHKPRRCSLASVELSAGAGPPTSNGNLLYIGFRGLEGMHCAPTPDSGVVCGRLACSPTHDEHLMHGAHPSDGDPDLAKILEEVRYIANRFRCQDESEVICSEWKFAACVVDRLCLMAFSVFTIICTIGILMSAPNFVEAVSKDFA
T3 sequence (P09483 31-630): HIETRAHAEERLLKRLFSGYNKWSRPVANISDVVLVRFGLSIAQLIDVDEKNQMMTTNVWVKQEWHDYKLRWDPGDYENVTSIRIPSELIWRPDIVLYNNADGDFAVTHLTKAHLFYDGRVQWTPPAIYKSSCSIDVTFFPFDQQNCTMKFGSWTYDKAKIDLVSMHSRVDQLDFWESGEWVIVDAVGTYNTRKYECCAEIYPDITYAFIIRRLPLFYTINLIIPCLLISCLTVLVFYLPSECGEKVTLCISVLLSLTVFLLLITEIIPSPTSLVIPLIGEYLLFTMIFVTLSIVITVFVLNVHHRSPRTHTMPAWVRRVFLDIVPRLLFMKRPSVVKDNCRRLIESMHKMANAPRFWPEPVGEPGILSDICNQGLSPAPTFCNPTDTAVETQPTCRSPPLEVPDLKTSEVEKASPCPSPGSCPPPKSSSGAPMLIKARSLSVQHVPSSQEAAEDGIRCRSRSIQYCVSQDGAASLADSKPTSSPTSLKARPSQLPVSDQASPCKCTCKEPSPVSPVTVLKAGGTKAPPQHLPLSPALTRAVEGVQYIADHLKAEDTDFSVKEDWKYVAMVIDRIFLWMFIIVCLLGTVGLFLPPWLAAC
T3 sequence (P12390 25-500): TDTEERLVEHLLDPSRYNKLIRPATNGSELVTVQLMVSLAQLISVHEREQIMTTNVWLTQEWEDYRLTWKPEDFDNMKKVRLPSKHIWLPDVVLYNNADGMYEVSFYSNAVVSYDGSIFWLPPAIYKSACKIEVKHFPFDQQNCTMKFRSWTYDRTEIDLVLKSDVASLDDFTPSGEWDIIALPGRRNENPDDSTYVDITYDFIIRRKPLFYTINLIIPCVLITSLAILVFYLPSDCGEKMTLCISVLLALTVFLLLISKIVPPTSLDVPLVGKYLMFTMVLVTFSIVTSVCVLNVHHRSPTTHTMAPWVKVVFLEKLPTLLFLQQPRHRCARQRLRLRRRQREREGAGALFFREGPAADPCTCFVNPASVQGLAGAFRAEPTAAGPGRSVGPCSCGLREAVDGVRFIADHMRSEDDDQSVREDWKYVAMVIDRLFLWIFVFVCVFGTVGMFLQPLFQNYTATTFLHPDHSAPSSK

A word on the pKi: it is the Ki on a negative log10 scale, so that one unit is a factor of ten. For the compound `O=C(C1CC1(F)F)N1C[C@@H]2CN[C@@H](C2)C1` (some centres unmarked), the figures for the pKi at rat α7 nAChR subtype (setting [1]), on human α4β2 nAChR subtype and at rat α4β2 nAChR subtype were 6.17, 7.96 and 7.96, respectively.
Turning to `CC(C)C(=O)N1C[C@H]2CNC[C@@H]1C2`, the pKi on rat α7 nAChR subtype (setting [1]) is 6.05; on human α4β2 nAChR subtype, 6.11.
Regarding `O=C(C1CC1)N1CC2CNC(C2)C1` (centres unmarked), the values for the pKi at rat α7 nAChR subtype (setting [1]), on human α4β2 nAChR subtype and at rat α4β2 nAChR subtype were 6.54, 8.82 and 8.89, respectively.
Consider `O=C(C1CC=CC1)N1CC2CNC(C2)C1` (centres unmarked), for which the negative-log Ki (pKi) at rat α7 nAChR subtype is 7.19; on human α4β2 nAChR subtype, 7.89; on rat α4β2 nAChR subtype, 7.96.
With `O=C(C1CC1)C1N[C@H]2CNC[C@@H]1C2` (some centres unmarked), the pKi on rat α7 nAChR subtype is 5.89; on human α4β2 nAChR subtype, 6.32.
As for `O=C(C1CC=CC1)N1C[C@@H]2CN[C@@H](C2)C1`, the pKi at rat α7 nAChR subtype is 7.54; at human α4β2 nAChR subtype (SH-EP1/human α4β2 cell membranes, 5 nM [3H]nicotine), 6.38; on rat α4β2 nAChR subtype (setting [2]), 6.48.
For `O=C(CCF)N1C[C@@H]2CN[C@@H](C2)C1`, the pKi was 6.02 on rat α7 nAChR subtype (setting [1]), 7.57 on human α4β2 nAChR subtype and 7.51 on rat α4β2 nAChR subtype.
On to `CC1CC1C(=O)N1C[C@@H]2CN[C@@H](C2)C1` (some centres unmarked), for which the pKi at rat α7 nAChR subtype is 6.34; at human α4β2 nAChR subtype it was 8.17; at rat α4β2 nAChR subtype, 8.32.
In the same order, the values of `O=C(C1CCC1)N1C[C@H]2CN[C@H](C2)C1` are 6.36, 8.80 and 8.66.
In the same order, the values of `CC(C)C(=O)N1C[C@@H]2CN[C@@H](C2)C1` are 6.66, 6.42 and 6.42.
With `O=C(C1CC1)N1C[C@H]2CN[C@H](C2)C1`, the pKi on rat α7 nAChR subtype (setting [1]) was 6.72; at human α4β2 nAChR subtype, 9.10; at rat α4β2 nAChR subtype, 9.30.
Turning to `O=C(C1CC=CC1)N1CC2CNCC1C2` (centres unmarked), the pKi on rat α7 nAChR subtype (setting [1]) is 6.80; at human α4β2 nAChR subtype it was 7.68; at rat α4β2 nAChR subtype (setting [2]), 6.92.
Regarding `O=C(C1CC=CC1)N1C[C@H]2CN[C@H](C2)C1`, the negative-log Ki (pKi) at rat α7 nAChR subtype is 7.19; on human α4β2 nAChR subtype, 8.36; at rat α4β2 nAChR subtype, 8.26.
With `O=C(C1CC1)N1C[C@@H]2CN[C@@H](C2)C1`, the results for the pKi on rat α7 nAChR subtype, at human α4β2 nAChR subtype and at rat α4β2 nAChR subtype were 7.01, 8.14 and 7.85, respectively.
As for `O=C(C1CCC1)N1C[C@@H]2CN[C@@H](C2)C1`, the pKi on rat α7 nAChR subtype is 6.43; at human α4β2 nAChR subtype it was 7.89; on rat α4β2 nAChR subtype it was 7.85.
With `O=C(CCF)N1C[C@H]2CNC[C@@H]1C2`, the negative-log Ki (pKi) was 5.64 on rat α7 nAChR subtype (setting [1]) and 5.62 at human α4β2 nAChR subtype.
For `O=C(N1CC2CNC(C2)C1)C(F)(F)F` (centres unmarked), the pKi on rat α7 nAChR subtype is below 5.00; at human α4β2 nAChR subtype, 5.68; at rat α4β2 nAChR subtype, 5.62.
In the same order, the values of `CCC(=O)N1C[C@@H]2CN[C@@H](C2)C1` are 5.70, 7.62 and 7.52.
On to `CCOC(=O)N1C[C@@H]2CNC[C@H]1C2`, for which the pKi on rat α7 nAChR subtype was below 5.00; on human α4β2 nAChR subtype, 7.11; on rat α4β2 nAChR subtype it was 7.49.
In the case of `O=C(C1C[C@@H]1F)N1CC2CNC(C2)C1` (some centres unmarked), the pKi is 6.59 at rat α7 nAChR subtype, 7.85 at human α4β2 nAChR subtype and 7.66 at rat α4β2 nAChR subtype.
As to `O=C(C1CCC1)N1C[C@H]2CNC[C@@H]1C2`, the results for the pKi on rat α7 nAChR subtype and at human α4β2 nAChR subtype were 5.82 and 6.74, respectively.
For the compound `CCOC(=O)N1C[C@H]2CN[C@H](C2)C1`, the pKi was 5.38 at rat α7 nAChR subtype, 7.82 on human α4β2 nAChR subtype and 7.96 on rat α4β2 nAChR subtype.
The like results for `O=C(C1C[C@H]1F)N1CC2CNC(C2)C1` (some centres unmarked) were, in that order, 6.20, 7.96 and 7.68.
With `CCCC(=O)N1C[C@@H]2CN[C@@H](C2)C1`, the pKi is 6.80 on rat α7 nAChR subtype, 7.74 on human α4β2 nAChR subtype and 7.74 at rat α4β2 nAChR subtype.
As to `O=C(C1CCCC1)N1C[C@@H]2CN[C@@H](C2)C1`, the pKi was 6.89 on rat α7 nAChR subtype (setting [1]), 6.80 at human α4β2 nAChR subtype and 6.89 at rat α4β2 nAChR subtype.
Take `O=C([C@H]1C[C@H]1F)N1C[C@H]2CNC[C@@H]1C2`: the pKi is 5.89 on rat α7 nAChR subtype, 7.17 on human α4β2 nAChR subtype and 6.77 at rat α4β2 nAChR subtype.
